Results published in patent US8927580B2, “Thiosemicarbazone compounds and use in the treatment of cancer” (Oncochel Therapeutics LLC, priority 2010, dated 2015).

Columns and labels:
[1] = tested on: SK-N-MC neuroepithelioma cell line; test: MTT anti-proliferative assay in SK-N-MC cells; assay type: cell-based, human; details: Homo sapiens, 72 h at 37° C., mean±SD (3 experiments)
Protocol: The cells were maintained in minimum essential media (MEM; Invitrogen, CA, USA) which contained 10% fetal calf serum (FCS; JRH Biosciences, Kansas, USA), 1% non-essential amino acids (Gibco, Victoria, Australia), 1% penicillin/streptomycin/glutamine (Gibco, VIC, Australia) and fungizone ([…]; Squibb Pharmaceuticals, Montreal, Canada).
The ability of the compounds to inhibit cellular proliferation was assessed initially in SK-N-MC cells by the MTT assay.
Table 1. […] Cells were seed and allowed to attach to wells for 24 h and then incubated for 72 h at 37° C. with control medium or the chelators.

[2] = tested on: CAPAN-2 pancreatic cancer cells; test: MTT proliferation assay, CAPAN-2; assay type: cell-based; details: Homo sapiens; CAPAN-2, MTT, 72 h
Protocol: The pancreatic cancer cell lines, including MIAPaCa-2, PANC 1, CAPAN-2 and CFPAC-1 were a generous gift from Prof. Andrew Biankin (Garvan Institute, NSW, Australia). The MIAPaCa-2, PANC 1 and CFPAC-1 cell lines were grown in DMEM medium (Invitrogen) and CAPAN-2 cells were grown in McCoy's medium (Invitrogen). All media was supplemented with 10% (v/v) fetal calf serum (Invitrogen), 1% (v/v) non-essential amino acids (Invitrogen), 1% (v/v) sodium pyruvate (Invitrogen), 2 mM L-glutamine (Invitrogen), 100 μg/mL of streptomycin (Invitrogen), 100 U/ml penicillin (Invitrogen), and 0.28 μg/mL of fungizone.
To further examine the spectrum of anti-proliferative activity, Dp4cycH4mT was tested against pancreatic cancer in vitro, performing MTT proliferation assays with PANC 1, MIAPaCa-2, CFPAC-1 and CAPAN-2 pancreatic cancer cells. As a comparison, currently used treatments for pancreatic cancer including gemcitabine and 5-fluorouracil were also tested. The iron chelator, DFO, was included as a positive control.
(§1) Table 2A. Anti-proliferative activity of Dp4cycH4mT against pancreatic cancer cell lines. Growth and antiproliferative activity IC50 (μM) values of Dp4cycH4mT in a variety of pancreatic cell lines and in comparison to DFO and the clinically used drugs gemcitabine and 5-fluorouracil as determined by the MTT assay. Cells were seeded and allowed to attach to wells for 24 h and then incubated for 72 h at 37° C. with control medium or the chelators. Results are mean±SD (3 experiments).
as §1, with “2B.” for “2A.”, “IC90” for “Growth and antiproliferative activity IC50”

[3] = tested on: SK-N-MC neuroepithelioma cells; test: Iron uptake assay (59Fe uptake from 59Fe-transferrin); assay type: cell-based, human; details: 25 μM chelator, 3 h at 37° C., 59Fe-Tf
Protocol: Cells were cultured in the same way as for the iron efflux experiments. […] At the end of the incubation the culture dishes were placed on ice, the media aspirated, and the cells washed 4 times with ice cold PBS. Protease (1 mL; 1 mg/mL; Sigma-Aldrich, NSW, Australia) solution was added to each plate and allowed to incubate on ice for 30 min. This facilitated the removal of membrane bound ^59Fe-Tf. Cells were then scraped from the plastic surface using a Teflon spatula and collected in Eppendorf tubes. These were centrifuged at 10000 rpm and 4° C. for 3 min. The supernatant was then transferred into counting tubes and the cell pellet resuspended in PBS before also being transferred into another set of counting tubes. Radioactivity was measured using a Wallac Wizard 3″ Gamma Counter (PerkinElmer, MA, USA). Results are expressed as average ^59Fe content of the cellular fraction as a percentage of the control value.

[4] = tested on: PANC 1 human pancreatic carcinoma; test: PANC 1 xenograft in nude mice: tumour growth; assay type: in vivo, nude mice (BALBc nu/nu); details: Dp4cycH4mT 5 mg/kg/day i.v.
Protocol: FIG. 5). […] (5 mg/kg) or vehicle control.

NDRG1 = test: Western blot analysis, NDRG1 expression; assay type: cell-based; details: MIAPaCa-2 cells
Protocol: (§2) Western analysis was performed via established protocols (Gao, J. and D. R. Richardson (2001). Blood 98: 842-50). The primary antibodies used were against NDRG1 (Abcam; UK), p21, cyclin D1, transferrin receptor 1 (TfR1; Santa Cruz, CA, USA) and β-actin (Sigma-Aldrich), with secondary HRP-conjugated goat and mouse antibodies (Sigma-Aldrich).
(§3) Dp4cycH4mT was examined to determine whether it could up-regulate NDRG-1 expression. To further evaluate the effect of the chelator Dp4cycH4mT on other key molecules involved in cell cycle progression, the expression of the cyclin-dependent kinase inhibitor, p21, as well as cyclin D1 in MIAPaCa-2 cells was also examined.

p21 = test: Western blot analysis, p21 expression; assay type: cell-based; details: MIAPaCa-2 cells
Protocol: as §2, §3

methemoglobin (metHb) = test: metHb formation in vivo; parameters: species or system C57BL6 mice; details: 6 mg/kg intravenously, blood taken after 30 min
Protocol: FIG. 13. Effect of thiosemicarbazone chelators on metHb-formation in vivo. MetHb after Dp44mT, Triapine® or Dp4cycH4mT treatment in vivo at a dose of 6 mg/kg administered intravenously via the tail vein. Mice in the control group were treated with vehicle alone. At 30 minutes post-administration, whole blood was collected for determination of metHb levels.
The levels of metHb and metMb in RBC lysates were determined using a Shimadzu UV-Vis spectrophotometer (UV-1800; Shimadzu Corporation, Kyoto, Japan) at 577 nm and 630 nm for metHb and metMb in accordance with published methods (Winterbourn CC and Carrell R W (1977). Biochem J 165: 141-148).
C57BL6 mice (7-8 weeks-old) were used under a protocol approved by the university of Sydney Animal Ethics Committee. Dp44mT, Triapine® or Dp4cycH4mT (all at 6 mg/kg) were dissolved in 30% propylene glycol/saline and administered iv via the tail vein. Subsequently, 30 min after administration, mice were anesthetized with isoflurane and blood samples obtained by cardiac puncture. Blood samples were lysed with 2.5 volumes of ultrapure water for metHb estimation. Mice were sacrificed with isoflurane, the heart exhaustively perfused with HBSS and Mb isolated.

Structure (SMILES): CN(C(=S)NN=C(c1ccccn1)c1ccccn1)C1CCCCC1 [Dp4cycH4mT, di-2-pyridylketone 4-cyclohexyl-4-methyl-3-thiosemicarbazone]
- IC50 [1]: 13 nM
- IC50 [2]: 40 ± 8 nM
- IC90 [2]: > 5000 nM
- cellular 59Fe uptake (% of the control) [3]: 21%
- Tumour weight [4]: 0.04 ± 0.01 g
- NDRG1 expression (NDRG1): significantly (p<0.01) up-regulated
- p21 expression (p21): markedly (p<0.05) increasing
- metHb (% of total Hb) (methemoglobin (metHb)): comparable to the control
